Experimental data as given in patent US11236055B2 (Venenum Biodesign, LLC, priority 2016, dated 2022).

Experiments:
[1] = target: T1, human TGR5 receptor (Homo sapiens, UniProt Q8TDU6); experiment: Human TGR5 cAMP production assay; type: cell-based; details: human TGR5, luminescent cAMP assay; coded A-D; read-out: Human TGR5 Lum. cAMP Activity (EC50)
T1 construct: host or cells: CHO-K1 (hTGR5-CHO cells)
T1 sequence (Q8TDU6 1-330): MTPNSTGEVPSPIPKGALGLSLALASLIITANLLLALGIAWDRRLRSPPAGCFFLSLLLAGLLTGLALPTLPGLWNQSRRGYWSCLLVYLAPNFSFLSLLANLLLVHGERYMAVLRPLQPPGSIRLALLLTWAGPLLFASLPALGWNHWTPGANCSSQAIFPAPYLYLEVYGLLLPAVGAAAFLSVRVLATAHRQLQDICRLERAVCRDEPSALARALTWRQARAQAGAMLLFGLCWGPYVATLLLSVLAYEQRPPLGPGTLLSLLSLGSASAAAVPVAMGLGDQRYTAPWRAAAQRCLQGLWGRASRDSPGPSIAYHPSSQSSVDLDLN
Method: Human TGR5 cAMP Production Assay
We evaluated the Compounds of the present invention for their ability to induce cAMP production using CHO-K1 cells overexpressing the human TGR5 receptor. CHO-K1 cells stably expressing human TGR5 receptor (accession number NM_001077194.1 (hTGR5) (i.e., hTGR5-CHO cells) were purchased from DiscoveRx Corporation (Fremont, Calif.). hTGR5-CHO cells were grown in Ham's F-12 media supplemented with 10% Fetal Bovine Serum, 1% Penicillin-Streptomycin, 2 mM L-Alanine L-Glutamine (Glutamax), and 800 μg/mL Geneticin selection. The cAMP production assay was performed using DiscoveRx's cAMP XS+ kit (Catalog No. 90-0075XL) following the manufacturer's recommended protocol. Briefly, hTGR5-CHO cells were harvested using non-enzymatic cell dissociation buffer (Sigma-Aldrich, St. Louis, Mo.) and 1×10^6 cells were combined in Phosphate-Buffered Saline (PBS) to a final volume of 496 μL to which 4 μL of 125 mM IBMX (Sigma-Aldrich, St. Louis, Mo.) was added. 500 μL of cAMP antibody solution was added to the harvested cells and incubated at room temperature for 20 min.
Test compounds were serially diluted (half-log dilutions) in DMSO and then further diluted 1:50 in PBS, 10 mM HEPES buffer. 2 μL of serially diluted compound was added to a 384-well low volume plate (Greiner; cat #784075) and centrifuged briefly. 2 μL of the cell/cAMP antibody mixture was then added to each compound-containing well and allowed to incubate at room temperature for one hour. Following incubation, the XS+ kits' ED/Lysis/CL Substrate Working Solution was prepared following the manufacturer's recommended protocol and 4 μL was added to each well of the plate. The plate was then incubated for one hour at room temperature. Following incubation, 4 μL of Enzyme Acceptor reagent was added to the plate and allowed to incubate overnight at room temperature. Luminescent signal was then detected using the Viewlux instrument (Perkin-Elmer, Waltham, Mass.).
(§1) In Table 33, EC50 values for both human and mouse cells were determined according to the TGR5 cAMP assays described above.

[2] = target: T2, mouse TGR5 receptor (Mus musculus, UniProt Q80SS6); experiment: Mouse TGR5 cAMP production assay (HTRF, Cisbio cAMP HiRange); type: cell-based; details: HEK293-EBNA cells overexpressing mouse TGR5, HTRF cAMP HiRange; coded A-D
T2 construct: expressed in transfected cells; host or cells: HEK293-EBNA (293 c18, ATCC CRL10852), Hygromycin B selection
T2 sequence (Q80SS6 1-329): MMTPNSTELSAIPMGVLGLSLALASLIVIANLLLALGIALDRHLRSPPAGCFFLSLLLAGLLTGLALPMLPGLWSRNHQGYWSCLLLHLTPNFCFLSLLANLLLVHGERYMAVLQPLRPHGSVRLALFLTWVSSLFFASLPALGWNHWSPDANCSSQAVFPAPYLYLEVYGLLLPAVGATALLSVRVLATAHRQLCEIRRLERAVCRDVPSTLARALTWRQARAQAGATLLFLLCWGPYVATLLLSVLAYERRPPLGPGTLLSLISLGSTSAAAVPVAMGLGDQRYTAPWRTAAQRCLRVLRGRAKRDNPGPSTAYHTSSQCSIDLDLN
Text: Mouse TGR5 cAMP Production Assay
We evaluated compounds of the present invention for their ability to induce cAMP production in HEK-EBNA cells overexpressing the mouse TGR5 receptor. Human embryonic kidney cells (HEK293-EBNA) stably expressing mouse TGR5 receptor were established using the following procedure. Specifically, a commercially-obtained gene encoding mouse TGR5 (accession number BC116914) from Thermo Scientific (Waltham, Mass.) was cloned into an episomal expression vector. The resulting expression plasmid was then transfected into 293 c18 (ATCC® CRL10852™) cells, which express the Epstein-Barr virus nuclear antigen EBNA1 and can support the replication of episomal vectors. Selection for the plasmid was maintained with Hygromycin B. Cells were cultured and maintained in DMEM (Sigma; cat #6429) supplemented with 10% Fetal Bovine Serum, 1% penicillin/streptomycin, 2 mM L-alanine L-glutamine (GlutaMax), and 250 μg/mL Hygromycin.
2. HTRF cAMP Production Assay
In this second cAMP production assay, the cAMP production was measured in 384-well low volume plates (Greiner; cat #784075) using the Cisbio™ cAMP HiRange HTRF Assay Kit (Cisbio) according to the manufacturer's protocol.
Briefly, compounds were initially diluted in 100% DMSO (12-point serial dilution by half logs) in a 96-well plate and then were further diluted 1:50 in PBS containing 10 mM HEPES. 5 μL were transferred to the 384-well assay plate in duplicate. HEK293-EBNA cells stably overexpressing mouse TGR5 were harvested using non-enzymatic cell dissociation buffer (Sigma), spun down, then resuspended in serum-free DMEM with 500 μM IBMX at a density of 500,000 cells/mL. 5 μL of cell suspension was transferred to each well of the 384-well assay plate already containing compound. The plate was covered and incubated at room temperature for 1 hour. The d2-cAMP and anti-cAMP Ab-cryptate stock solutions were prepared as per kit instructions. Then 5 μL of each conjugate (d2 and cryptate) were added to each well of the assay plate. The plate was covered and incubated at room temperature for 1 hour. The plate was read on an Envision™ plate reader (Perkin Elmer).
as §1

| Structure (SMILES) | EC50 [1] [nM] | EC50 [2] [nM] |
| --- | --- | --- |
| Cc1cnccc1-c1cccc([C@H](CCCC#N)N(CCCC(=O)OC(C)(C)C)S(=O)(=O)c2cccc(Cl)c2C)c1 [Compound 15AC, (S)-tert-butyl 4-(3-chloro-N-(4-cyano-1-(3-(3-methylpyridin-4-yl)phenyl)butyl)-2-methylphenylsulfonamido) butanoate] | 100 to 999 | 1000 to 30000 |
| COc1cnccc1-c1cccc(C(NS(=O)(=O)c2ccccc2C(F)(F)F)c2ccccc2)c1 (stereo not drawn) [Compound 1CC] | 100 to 999 | 100 to 999 |
| Cc1c(Cl)cccc1S(=O)(=O)N[C@@H](C)c1cccc(-n2ccncc2=O)c1 [Compound 12, (S)-3-chloro-2-methyl-N-(1-(3-(2-oxopyrazin-1(2H)-yl)phenyl)ethyl)benzenesulfonamide] | 100 to 999 | 1000 to 30000 |
| Cc1cnccc1-c1cccc(C2(N(CCCC(=O)O)S(=O)(=O)c3cccc(Cl)c3C)COC2)c1 [Compound 16AL, 4-(3-chloro-2-methyl-N-(3-(3-(3-methylpyridin-4-yl)phenyl)-oxetan-3-yl)phenyl-sulfonamido)butanoic acid] | 100 to 999 | 100 to 999 |
| COc1cnccc1-c1cccc(C(C)(C)NS(=O)(=O)c2ccc(C#N)cc2Cl)c1 [Compound 2BN] | 100 to 999 | 1000 to 30000 |
| Cc1cnccc1-c1cccc([C@H](C)N(CCCC(=O)N(CC(=O)O)CC(=O)O)S(=O)(=O)c2cccc(Cl)c2C)c1 [Compound 21AK, (S)-2,2′-((4-(3-chloro-2-methyl-N-(1-(3-(3-methylpyridin-4-yl)phenyl)ethyl)phenylsulfonamido)butanoyl)azanediyl)diacetic acid] | 1000 to 30000 | 1000 to 30000 |
| Cc1cnccc1-c1cccc([C@H](C)N(CCOCC(=O)NCCS(=O)(=O)O)S(=O)(=O)c2cccc(Cl)c2C)c1 [Compound 21AO, (S)-2-(2-(2-(3-Chloro-2-methyl-N-(1-(3-(3-methylpyridin-4-yl)phenyl)ethyl)phenylsulfonamido)ethoxy)acetamido)ethanesulfonic acid] | 100 to 999 | 100 to 999 |
| Cc1cnccc1-c1cccc([C@H](C)N(CCC(=O)O)S(=O)(=O)c2cccc(Cl)c2C)c1 [Compound 16AK, (S)-3-(3-chloro-2-methyl-N-(1-(3-(3-methylpyridin-4-yl)phenyl)ethyl)phenylsulfonamido)propanoic acid] | 1000 to 30000 | 1000 to 30000 |
| Cc1cnccc1-c1cccc([C@H](C)N(CCCC(=O)O)S(=O)(=O)c2ccccc2C)c1 [Compound 16AD, (S)-4-(2-methyl-N-(1-(3-(3-methylpyridin-4-yl)phenyl)-ethyl)phenylsulfonamido)butanoic acid] | 100 to 999 | 100 to 999 |
| Cc1cnccc1-c1cccc(C2CN(C(=O)CS(=O)(=O)O)CCN2S(=O)(=O)c2ccccc2C)c1 (stereo not drawn) [Compound 49AA, 2-(3-(3-(3-methylpyridin-4-yl)phenyl)-4-(o-tolylsulfonyl)piperazin-1-yl)-2-oxoethanesulfonic acid] | 100 to 999 | < 100 |

Further lines, results first:

| EC50 [1] [nM] | EC50 [2] [nM] | Structure (SMILES) |
| --- | --- | --- |
| 100 to 999 | 1000 to 30000 | Cc1c(Cl)cccc1S(=O)(=O)N[C@@H](C)c1cccc(-c2ccnn2C)c1 [Compound 4, (S)-3-Chloro-2-methyl-N-(1-(3-(1-methyl-1H-pyrazol-5-yl)phenyl)ethyl)benzenesulfonamide] |
| 100 to 999 | 1000 to 30000 | CC(C)(NS(=O)(=O)c1cccc(C(F)(F)F)c1)c1cccc(-c2ccc3nccn3c2)c1 [Compound 5AF, N-(2-(3-(imidazo[1,2-a]pyridin-6-yl)phenyl)propan-2-yl)-3-(trifluoromethyl)benzenesulfonamide] |
| < 100 | < 100 | Cc1cnccc1-c1cccc([C@H](CCCC#N)NS(=O)(=O)c2ccccc2C(F)(F)F)c1 [Compound 5BC, (S)-N-(4-cyano-1-(3-(3-methylpyridin-4-yl)phenyl)-butyl)-2-(trifluoromethyl)benzenesulfonamide] |
| < 100 | 100 to 999 | Cc1cnccc1-c1cccc([C@H](C)N(CCCCC(=O)O)S(=O)(=O)c2cccc(Cl)c2C)c1 [Compound 16AF, (S)-5-(3-chloro-2-methyl-N-(1-(3-(3-methylpyridin-4-yl)phenyl)ethyl)phenylsulfonamido)pentanoic acid] |
| < 100 | < 100 | CCc1cnccc1-c1cccc([C@H](C)N(CCCC(=O)O)S(=O)(=O)c2cccc(Cl)c2C)c1 [Compound 16AB, (S)-4-(3-chloro-N-(1-(3-(3-ethylpyridin-4-yl)phenyl)ethyl)-2-methylphenyl-sulfonamido)butanoic acid] |
| < 100 | < 100 | Cc1cnccc1-c1cccc([C@H](C)N(CCCC(=O)NCCS(=O)(=O)NCC(=O)O)S(=O)(=O)c2ccccc2C(F)(F)F)c1 [Compound 20BJ] |
| < 100 | < 100 | Cc1cnccc1-c1cccc(C(C)(C)NS(=O)(=O)c2cccc(Cl)c2Cl)c1 [Compound 2BV] |
| < 100 | < 100 | Cc1cnccc1-c1cccc(C2(NS(=O)(=O)c3cccc(Cl)c3C)COC2)c1 [Compound 7AC, 3-chloro-2-methyl-N-(3-(3-(3-methylpyridin-4-yl)phenyl)oxetan-3-yl)benzenesulfonamide] |
| < 100 | 100 to 999 | Cc1cnccc1-c1cccc([C@H](C)N(CCCC(=O)NCCNC(=O)CS(=O)(=O)O)S(=O)(=O)c2ccccc2C(F)(F)F)c1 [Compound 31AE, (S)-2-((2-(4-(N-(1-(3-(3-methylpyridin-4-yl)phenyl)ethyl)-2-(trifluoromethyl)phenylsulfonamido)butanamido)ethyl)amino)-2-oxoethanesulfonic acid] |
| < 100 | < 100 | Cc1cnccc1-c1cccc([C@H](C)N(CCCC(=O)NCCCS(=O)(=O)O)S(=O)(=O)c2cccc(Cl)c2C)c1 [Compound 20AL, (S)-3-(4-(3-chloro-2-methyl-N-(1-(3-(3-methylpyridin-4-yl)phenyl)ethyl)phenylsulfonamido)butanamido)propane-1-sulfonic acid] |
| < 100 | < 100 | Cc1cnccc1-c1cccc([C@H](C)N(CCCCC(=O)NCCOCCNS(=O)(=O)CC(=O)O)S(=O)(=O)c2cccc(Cl)c2C)c1 [Compound 26AD] |
